Source: US20250367229A1, “Treatment of Immune-Related Disorders, Kidney Disorders, Liver Disorders, Hemolytic Disorders, and Oxidative Stress-Associated Disorders Using NRH, NARH and Reduced Derivatives Thereof” (MitoPower LLC, priority 2021, published 2025)

System: HEK293 cells
Test: NADH/NAD+ ratio in H2O2-exposed HEK293 cells (NAD/NADH-Glo)
Format: cell-based
Conditions: NRH at 100 and 1000 μM, NR at all tested concentrations (0.01-1000 μM)
Description: HEK293 cells were trypsinized and plated at a density of 60,000 cells per well. The cells were then treated with H2O2 (600 μM prepared with Dulbecco's Modified Eagle Medium [DMEM]) for 30 min. The media was then replaced with serum media (DMEM supplemented with 10% fetal bovine serum [FBS]) containing NRH or NR, and were incubated at 37° C. under 6% CO2 for 30 min or 6 hr. The cells were incubated with the following concentrations of NRH or NR: 0.01, 0.1, 1.0, 10, 100 and 1000 μM. NAD^+ and NADH levels at 30 min and 6 hr were estimated using the NAD/NADH-Glo Promega Bioluminescent assay. The results were expressed as fold change relative to the values obtained with untreated cells.

In the case of `NC(=O)C1=CN([C@@H]2O[C@H](CO)[C@@H](O)[C@H]2O)C=CC1` [NRH, N-(β-D-ribofuranosyl)dihydronicotinamide], the “NADH/NAD+ ratio in HEK293 cells exposed to H2O2” value (30 min of incubation) is reported as “significantly increased” and the “NADH/NAD+ ratio in HEK293 cells exposed to H2O2” value (6 hr of incubation) is reported as “significantly increased”.
